How the values were obtained:
umbrella plant = assay: Submergence soil treatment test (4); type: in vivo; details: twenty days after treatment; also: ranges in brackets are in %
Experimental: (§1) 90 Parts by weight of the above carrier and 10 parts by weight of each of Compounds obtained in the above Preparation Examples were uniformly pulverized and mixed to obtain herbicides. Further, for Herbicide Comparative Examples, comparative herbicides were prepared by uniformly pulverizing and mixing 90 parts by weight of the above carrier and 10 parts by weight of each of the following Compounds x, y, A, B and C.
(§2) (4) Biological Test (Submergence Soil Treatment Test, Herbicide Examples 5˜9 and Comparative Examples 5˜8 and Reference Example 1 and 2)
(§3) 1/15,500-are porcelain pots were filled with paddy field soil, and seeds of barnyard grass and umbrella plant were sown in a surface layer of the soil, and paddy rice at the 2-leaf stage was transplanted. Then, the weeds were treated by uniformly spraying a diluted solution of a predetermined amount of the herbicide prepared in the above (1) onto the water surface at the time of germination of the weeds, and then the pots were allowed to stand in a greenhouse while water was properly sprayed. […] The dosage of each herbicide is shown as an amount of the active ingredient per 10 areas. Further, air-dried weights were measured, and the herbicidal efficacy and the phytotoxicity to the paddy rice were shown as follows.

barnyard grass [1] = assay: Submergence soil treatment test (4); type: in vivo; details: twenty days after treatment; also: ranges in brackets are in %
Experimental: as §1, §2, §3

paddy rice = assay: Submergence soil treatment test (4), phytotoxicity; type: in vivo; details: twenty days after treatment
Experimental: as §1, §2, §3

large crabgrass = assay: Upland soil treatment test (5); type: in vivo; details: dosage 100 g a.i./hectare, 20th day after treatment; also: ranges in brackets are in %
Experimental: as §1
(§4) (5) Biological Test (Upland Soil Treatment Test, Herbicide Examples 10-26 and Comparative Example 9)
(§5) Seeds of weeds such as large crabgrass, barnyard grass, green foxtail, cocklebur, velvetleaf and slender amaranth and seeds of corn, wheat and barley were sown in 1/5,000-are Wagner pots filled with upland soil, and covered with upland soil. Then, a predetermined amount of the herbicide prepared in the above (1) was suspended in water and uniformly sprayed onto the soil surface. Thereafter, the plants were grown in the greenhouse, and on 20th day after the treatment, the herbicide was evaluated for herbicidal efficacy.
(§6) The dosage of each herbicide is indicated as an amount of the active ingredient per hectare. Further, air-dried weight were measured, and herbicidal efficacy and the pytotoxicity to corn are shown on the basis of the ratings described below.

slender amaranth = assay: Upland soil treatment test (5); type: in vivo; details: dosage 100 g a.i./hectare, 20th day after treatment; also: ranges in brackets are in %
Experimental: as §1, §4, §5, §6

cocklebur = assay: Upland soil treatment test (5); type: in vivo; details: dosage 100 g a.i./hectare, 20th day after treatment; also: ranges in brackets are in %
Experimental: as §1, §4, §5, §6

velvetleaf = assay: Upland soil treatment test (5); type: in vivo; details: dosage 100 g a.i./hectare, 20th day after treatment; also: ranges in brackets are in %
Experimental: as §1, §4, §5, §6

barnyard grass [2] = assay: Upland soil treatment test (5); type: in vivo; details: dosage 100 g a.i./hectare, 20th day after treatment; also: ranges in brackets are in %
Experimental: as §1, §4, §5, §6

green foxtail = assay: Upland soil treatment test (5); type: in vivo; details: dosage 100 g a.i./hectare, 20th day after treatment; also: ranges in brackets are in %
Experimental: as §1, §4, §5, §6

corn = assay: Upland soil treatment test (5), phytotoxicity; type: in vivo; details: dosage 100 g a.i./hectare, 20th day after treatment
Experimental: as §1, §4, §5, §6

| melting point | Compound | Herbicidal Effficacy umbrella plant (umbrella plant; dosage 3 g a.i./10 are) | Herbicidal Effficacy umbrella plant (umbrella plant; dosage 10 g a.i./10 are) | Herbicidal Effficacy barnyard grass (barnyard grass [1]; dosage 3 g a.i./10 are) | Herbicidal Effficacy barnyard grass (barnyard grass [1]; dosage 10 g a.i./10 are) | Phytotoxicity to paddy rice (paddy rice; dosage 3 g a.i./10 are) | Phytotoxicity to paddy rice (paddy rice; dosage 10 g a.i./10 are) | Herbicidal Efficacy large crabgrass (large crabgrass) | Herbicidal Efficacy slender amaranth (slender amaranth) | Herbicidal Efficacy cocklebur (cocklebur) | Herbicidal Efficacy velvetleaf (velvetleaf) | Herbicidal Efficacy barnyard grass (barnyard grass [2]) | Herbicidal Efficacy green foxtail (green foxtail) | Phyto-toxicity to corn (corn) | Herbicidal Effficacy umbrella plant (umbrella plant; dosage 1 g a.i./10 are) | Herbicidal Effficacy barnyard grass (barnyard grass [1]; dosage 1 g a.i./10 are) | Phytotoxicity to paddy rice (paddy rice; dosage 1 g a.i./10 are) |
| --- | --- | --- | --- | --- | --- | --- | --- | --- | --- | --- | --- | --- | --- | --- | --- | --- | --- |
| – | CCn1ncc(C(=O)c2cc(C)c3c(c2C)C(=NOC)CCS3(=O)=O)c1O [Comp'd C, reference compound] | 3 (21-40) | 5 (0) | 0 (81-100) | 4 (1-20) | 2 (90-94) | 5 | – | – | – | – | – | – | – | – | – | – |
| 263.7 to 263.9 °C | CCn1ncc(C(=O)c2cc(Cl)c3c(c2Cl)C(C)(C)CCS3)c1O [Compound 3] | – | – | – | – | – | – | – | – | – | – | – | – | – | – | – | – |
| 202.2 to 203.4 °C | CCn1ncc(C(=O)c2cc(C)c3c(c2C)C(C)(C)CCS3(=O)=O)c1OS(C)(=O)=O [Compound 7, 4,4,5,8-tetramethyl-6-(1-ethyl-5-methanesulfonyloxypyrazol-4-yl)carbonylthiochroman-1,1-dioxide] | – | – | – | – | – | – | 5 (0) | 5 (0) | 5 (0) | 5 (0) | 5 (0) | 4 (1-20) | 0 (100) | – | – | – |
| 164.1 to 165.7 °C | CCn1ncc(C(=O)c2cc(C)c3c(c2C)C(C)(C)CCS3)c1OS(=O)(=O)CC [Compound 8] | – | – | – | – | – | – | 5 (0) | – | 5 (0) | 5 (0) | 4 (1-20) | 4 (1-20) | 0 (100) | – | – | – |
| – | CCCS(=O)(=O)Oc1c(C(=O)c2cc(C)c3c(c2C)C(C)(C)CCS3(=O)=O)cnn1CC [Compound 9] | – | – | – | – | – | – | 5 (0) | 5 (0) | 5 (0) | 5 (0) | 5 (0) | 5 (0) | 0 (100) | – | – | – |
| – | CCCCS(=O)(=O)Oc1c(C(=O)c2cc(C)c3c(c2C)C(C)(C)CCS3(=O)=O)cnn1CC [Compound 10] | – | – | – | – | – | – | 5 (0) | 5 (0) | 3 (21-40) | 5 (0) | 5 (0) | 2 (41-60) | 0 (100) | 5 (0) | 5 (0) | 0 (100) |
| – | CCCCCCCCS(=O)(=O)Oc1c(C(=O)c2cc(C)c3c(c2C)C(C)(C)CCS3(=O)=O)cnn1CC [Compound 11] | – | – | – | – | – | – | 5 (0) | 1 (61-80) | 3 (21-40) | 5 (0) | 3 (21-40) | 2 (41-60) | 0 (100) | 5 (0) | 5 (0) | 0 (100) |
| – | CCn1ncc(C(=O)c2cc(C)c3c(c2C)C(C)(C)CCS3(=O)=O)c1OS(=O)(=O)c1ccc(C)cc1 [Compound 12] | – | – | – | – | – | – | 5 (0) | 5 (0) | – | 5 (0) | 5 (0) | 1 (61-80) | 0 (100) | – | – | – |
| – | CCn1ncc(C(=O)c2cc(C)c3c(c2C)C(C)(C)CCS3(=O)=O)c1OS(=O)(=O)c1ccc([N+](=O)[O-])cc1 [Compound 13] | – | – | – | – | – | – | 5 (0) | 2 (41-60) | 5 (0) | 5 (0) | 3 (21-40) | 2 (41-60) | 0 (100) | – | – | – |
| – | CCn1ncc(C(=O)c2cc(C)c3c(c2C)C(C)(C)CCS3(=O)=O)c1OS(=O)(=O)c1ccc(OC)cc1 [Compound 14] | – | – | – | – | – | – | 5 (0) | 5 (0) | 5 (0) | 5 (0) | 5 (0) | 2 (41-60) | 0 (100) | 3 (21-40) | 5 (0) | 0 (100) |
| – | CCn1ncc(C(=O)c2cc(C)c3c(c2C)C(C)(C)CCS3(=O)=O)c1OS(=O)(=O)c1ccccc1C [Compound 16] | 5 (0) | – | 5 (0) | – | 0 (100) | – | 5 (0) | 5 (0) | 5 (0) | 5 (0) | 5 (0) | 5 (0) | 0 (100) | 2 (41-60) | 5 (0) | 0 (100) |
| – | CCCCC(=O)Oc1c(C(=O)c2cc(C)c3c(c2C)C(C)(C)CCS3(=O)=O)cnn1CC [Compound 20] | – | – | – | – | – | – | 5 (0) | – | 5 (0) | 5 (0) | 3 (21-40) | 2 (41-60) | 0 (100) | – | – | – |
| – | CCCCCCC(=O)Oc1c(C(=O)c2cc(C)c3c(c2C)C(C)(C)CCS3(=O)=O)cnn1CC [Compound 21] | – | – | – | – | – | – | 5 (0) | 5 (0) | 5 (0) | 5 (0) | 5 (0) | 4 (1-20) | 0 (100) | – | – | – |
| 165.2 to 169 °C | CCn1ncc(C(=O)c2cc(C)c3c(c2C)C(C)(C)CCS3)c1OC(=O)c1ccc(Cl)cc1Cl [Compound 23] | – | – | – | – | – | – | – | – | – | – | – | – | – | – | – | – |
| – | CCn1ncc(C(=O)c2cc(C)c3c(c2C)C(C)(C)CCS3)c1OCC(C)=O [Compound 24] | – | – | – | – | – | – | 5 (0) | 5 (0) | 5 (0) | 5 (0) | 5 (0) | 2 (41-60) | 0 (100) | – | – | – |
| – | CCn1ncc(C(=O)c2cc(C)c3c(c2C)C(C)(C)CCS3(=O)=O)c1OCC(=O)c1ccccc1 [Compound 25] | – | – | – | – | – | – | 5 (0) | 5 (0) | 5 (0) | 5 (0) | 2 (41-60) | 2 (41-60) | 0 (100) | – | – | – |

| Compound | melting point | Herbicidal Effficacy umbrella plant (umbrella plant; dosage 3 g a.i./10 are) | Herbicidal Effficacy umbrella plant (umbrella plant; dosage 10 g a.i./10 are) | Herbicidal Effficacy barnyard grass (barnyard grass [1]; dosage 3 g a.i./10 are) | Herbicidal Effficacy barnyard grass (barnyard grass [1]; dosage 10 g a.i./10 are) | Phytotoxicity to paddy rice (paddy rice; dosage 3 g a.i./10 are) | Phytotoxicity to paddy rice (paddy rice; dosage 10 g a.i./10 are) | Herbicidal Efficacy large crabgrass (large crabgrass) | Herbicidal Efficacy slender amaranth (slender amaranth) | Herbicidal Efficacy cocklebur (cocklebur) | Herbicidal Efficacy velvetleaf (velvetleaf) | Herbicidal Efficacy barnyard grass (barnyard grass [2]) | Herbicidal Efficacy green foxtail (green foxtail) | Phyto-toxicity to corn (corn) | Herbicidal Effficacy umbrella plant (umbrella plant; dosage 1 g a.i./10 are) | Herbicidal Effficacy barnyard grass (barnyard grass [1]; dosage 1 g a.i./10 are) | Phytotoxicity to paddy rice (paddy rice; dosage 1 g a.i./10 are) |
| --- | --- | --- | --- | --- | --- | --- | --- | --- | --- | --- | --- | --- | --- | --- | --- | --- | --- |
| CCn1ncc(C(=O)c2cc(C)c3c(c2C)C(C)(C)CCS3(=O)=O)c1OC(C)=O [Compound 18, 4,4,5,8-tetramethyl-6-(1-ethyl-5-acetoxypyrazol-4-yl)carbonylthiochroman-1,1-dioxide] | 187.7 to 191.4 °C | – | – | – | – | – | – | 5 (0) | 5 (0) | 5 (0) | 5 (0) | 5 (0) | 4 (1-20) | 0 (100) | – | – | – |

Source: patent US6677460B1, “Aromatic carboxylic acid bicyclic sulfur compounds” (Idemitsu Kosan Company, Limited, priority 1993, dated 2004)
